Source: patent US11174177B2, “Systems and methods for controlling aquatic pests with sulfurous acid” (priority 2017, dated 2021)

Experiments:
clams = details: sulfuric acid and low pH, previously found; cited from earlier work
aquatic pests = experiment: Water treatment, control of aquatic pests in general; assay type: in vivo
Text: Thus, sulfurous acid can be used to treat water to control existing aquatic pest as well as condition the water to inhibit spreading of any aquatic pests introduced therein. This can inhibit spreading from a first body of water to a second body of water, such as from a pond to a stream or from a stream into a pond. While providing the sulfurous acid prohibits or prevents aquatic pest infestations or can be used as a prophylactic against aquatic pest infestations, application to the water can be done for the desire to control any aquatic pest in the water or soil in contact with the water (e.g., river bed, pond bed, shore, or other soil in direct contact with the water), or that may come into contact therewith. Also, the sulfurous acid can treat the surfaces of any water system or any surface of any object in the water to inhibit aquatic pest from attaching thereto, remove the aquatic pests from the surface (e.g., descale) or otherwise inhibit the aquatic pest from contaminating the water system. Thus, it may be desirable to apply the sulfurous acid to a water or soil contacting the water or structure confining the water as desired.
Thus, exhaust products from burning sulfur and reaction products of the exhaust products (e.g., reaction products from reacting sulfur dioxide with water or reacting other sulfur-containing substance in the exhaust with water) and water can be used to control the aquatic pets. In one aspect, sulfuric acid is specifically not used in the methods described herein.
Thus, introducing the exhaust products from burning sulfur that has sulfur dioxide (e.g., exhaust directly from a sulfur burn chamber) and reaction products of the exhaust products and water may reduce the calcium in the water in order to control the pests. This may include reducing the overall free calcium level, such as reducing carbonate and bicarbonate levels. In one aspect, the ability of sulfurous acid to degrade carbonates and bicarbonates may contribute to the ability of the present technology controlling pests. […] As referred to herein, the exhaust products include sulfur dioxide and possibly other sulfur-containing substances that are obtained directly from a sulfur burner that burns elemental sulfur.
Treatment can provide clarified water from murky water having one or more of these aquatic pests.

fish or other animals = assay type: in vivo; details: Daybreak reservoirs, pH maintained between 6.8-7
Text: (§1) As a control, Jordan Canal water, which was infected with cyanobacteria from Utah Lake, is directed to Daybreak and other areas. While treatment controlled cyanobacteria in Daybreak reservoirs, other areas that receive water from the Jordan Canal were still testing positive for cyanobacteria. As such, the treatment of sulfurous acid controlled the cyanobacteria in view of water ways further away (e.g., Blackridge Reservoir, Jordan River Narrows, and Wheeler Farm East Canal) still containing cyanobacteria. […] Since cyanobacteria are harmful to fish, the sulfurous acid actually improves the health of fish in the treated water.

cyanobacteria = experiment: Treatment of Daybreak reservoirs infested with cyanobacteria; assay type: in vivo
Text: as §1

bryozoa = experiment: Open-water pond treatment, mortality of bryozoa; assay type: in vivo
Method: (§2) Applicant have performed studies and determined that the present water treatment methods with sulfurous acid provide about 100% kill of bryozoa in 48 hours, 100% kill of zebra mussels in 5 days, and 100% kill of Asiatic clams in less than one month. In these studies, the protocols introduced sulfurous acid into open water to achieve water pH levels between 6.0 and 6.5 in the treatment water within a control distance from the location of introduction. Accordingly, these pH ranges are sufficient to control these aquatic species. This allows these relatively higher pH ranges to control the aquatic species without compromising the body of water. The cyanobacteria can have a 100% kill from the sulfurous acid with a pH of the treated water between 6-7, or more preferably between 6.8-7.
(§3) In view of the disclosure provided herein, it is now possible to achieve about 100% kill rates on these aquatic pest species in any size body of water at ambient temperature and pressure. The water treatment is performed through the addition of sufficient sulfurous acid (as well as any sulfites and bisulfites in the sulfurous acid) so as to reduce pH between about 6.0-about 6.5 over hours to days to weeks. […] The mortality of each aquatic pest was measured progressively over time until all the aquatic pests in the pond were determined to be dead or at a level so low as to be unmeasurable.

algae = experiment: Removal of algae from treated water; assay type: in vivo; details: pH 6.5
Text: In one example, pH 6.5 removed algae in 15 days.

zebra mussels = experiment: Open-water pond treatment, mortality of zebra mussels; assay type: in vivo
Method: as §2, §3

anatoxin-a = experiment: Cyanotoxin in treated Daybreak reservoirs; parameters: species or system cyanobacteria; details: Daybreak reservoirs (surge pond), pH maintained between 6.8-7
Text: as §1

Asiatic clams = experiment: Open-water pond treatment, mortality of Asiatic clams; assay type: in vivo
Method: as §2, §3

[1] = inoculated aquatic pond, pH about 6.0-about 6.5, no time stated

Row | Compound | kill of clams (clams) | effect on algae, bacteria, zebra mussel, Asian clam, apple snail, American crab, crayfish, Bryozoans (aquatic pests; in vivo) | kill rates in the aquatic pests (aquatic pests; open and contained water) [%] | effectiveness in controlling aquatic pests versus sulfuric acid (aquatic pests; pH reduced to 7.1 with sulfurous acid versus pH 3.0 with sulfuric acid) | aquatic pest count (aquatic pests; preliminary testing, applied to water having aquatic pest) | kill of non-target fish or other animals (fish or other animals) | time until free of cyanobacteria (cyanobacteria; Daybreak reservoirs (surge pond), pH maintained between 6.8-7) [weeks] | detection of cyanobacteria after treatment (cyanobacteria; Daybreak reservoirs, untreated Jordan Canal areas still positive) | cyanobacteria in waterways downstream from the Daybreak reservoirs (cyanobacteria; downstream of treated reservoirs) | kill of cyanobacteria (cyanobacteria; pH of the treated water between 6-7, more preferably 6.8-7) [%] | kill of bryozoa (bryozoa; in 48 hours, open water, pH between 6.0 and 6.5) | kill of bryozoan (bryozoa; [1]) | time to removal of algae (algae) [days] | kill of zebra mussels (zebra mussels; in 5 days, open water, pH between 6.0 and 6.5) [%] | kill of zebra mussels (zebra mussels; [1]) | time until free of anatoxin-a (anatoxin-a) [weeks] | kill of Asiatic clams (Asiatic clams; in less than one month, open water, pH between 6.0 and 6.5) [%] | kill of Asiatic clams (Asiatic clams; [1])
1 | O=S(=O)(O)O [sulfuric acid] | kill the clams, but only in some cases |  |  |  |  |  |  |  |  |  |  |  |  |  |  |  |  | 
2 | sulfurous acid |  | reduce | 100 | more effective | reduces the aquatic pest count | no fish or other animals were determined to be killed | ≤ 2 | non-detect | free of cyanobacteria | 100 | about 100% | about 100% | 15 | 100 | about 100% | ≤ 2 | 100 | about 100%
